This experiment concerns the target T1, chicken gizzard smooth muscle myosin subfragment-1 chemically crosslinked to cardiac or skeletal actin (Gallus gallus, UniProt P10587).
T1 construct: chicken gizzard smooth muscle myosin subfragment-1; from tissue; host or cells: chicken gizzard
As to the kind of experiment: Smooth muscle myosin ATPase dose response assay (pyruvate kinase/horseradish peroxidase/pyruvate oxidase-coupled, amplex red fluorescence). Conditions: read-out: IC50 Arithmetic Mean. It is filed as biochemical. The method, boiled down: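 Amplex red fluorescence (480 nm excitation, 615 nm emission) tracked ATP hydrolysis by smooth muscle S1 crosslinked to actin with carbodiimide/N-hydroxysuccinimide. Reactions contained 0.15 mM ATP and 100 mM KCl at pH 7.00, 22° C. IC50 came from a four-parameter logistic fit.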

Here are results for 30 molecules from patent US7932270B2 (Cytokinetics, Inc., priority 2006, dated 2011).

T1 sequence (P02607 2-151): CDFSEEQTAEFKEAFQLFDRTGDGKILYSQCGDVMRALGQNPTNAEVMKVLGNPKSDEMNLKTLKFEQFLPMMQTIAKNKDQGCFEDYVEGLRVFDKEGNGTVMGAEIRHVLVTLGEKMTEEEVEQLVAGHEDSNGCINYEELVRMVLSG
T1 sequence (P10587 84-789): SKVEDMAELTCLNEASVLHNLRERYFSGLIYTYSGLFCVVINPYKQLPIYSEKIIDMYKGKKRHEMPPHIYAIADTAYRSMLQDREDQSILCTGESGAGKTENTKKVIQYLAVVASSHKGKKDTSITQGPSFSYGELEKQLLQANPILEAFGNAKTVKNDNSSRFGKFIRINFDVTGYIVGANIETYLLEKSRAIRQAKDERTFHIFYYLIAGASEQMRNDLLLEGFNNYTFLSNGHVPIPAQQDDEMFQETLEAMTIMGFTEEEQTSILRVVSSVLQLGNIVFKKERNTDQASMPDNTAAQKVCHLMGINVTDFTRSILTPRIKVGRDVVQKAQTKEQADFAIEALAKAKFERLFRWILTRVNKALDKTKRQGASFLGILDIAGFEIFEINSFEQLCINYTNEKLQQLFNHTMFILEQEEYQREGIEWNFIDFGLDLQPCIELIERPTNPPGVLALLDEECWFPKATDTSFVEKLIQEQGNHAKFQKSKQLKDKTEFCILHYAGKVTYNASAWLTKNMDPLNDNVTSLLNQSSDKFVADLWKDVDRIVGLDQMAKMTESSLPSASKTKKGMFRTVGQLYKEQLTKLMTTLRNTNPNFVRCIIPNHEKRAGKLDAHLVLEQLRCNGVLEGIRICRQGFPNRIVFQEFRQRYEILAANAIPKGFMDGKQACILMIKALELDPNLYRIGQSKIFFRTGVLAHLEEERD

As for `Cn1cc(-c2nc(NCCc3cccc(F)c3)c(C(=O)NCCCNC(=O)OC(C)(C)C)cc2F)cn1` [N-{3-[(tert-butoxy)carbonylamino]propyl}(5-fluoro-2-{[2-(3-fluorophenyl)ethyl]amino}-6-(1-methylpyrazol-4-yl)(3-pyridyl))carboxamide], the IC50 (in general, the concentration at which inhibition is half-maximal) is 4.5 µM. In the case of `CC(C)(C)OC(=O)NCCCNC(=O)CNC(=O)c1ccc(-c2ccccc2C#N)nc1NCCc1cccc(F)c1` [N-{3-[(tert-butoxy)carbonylamino]propyl}-2-[(6-(2-cyanophenyl)-2-{[2-(3-fluorophenyl)ethyl]amino}(3-pyridyl))carbonylamino]acetamide] it was 9.88 µM. As to `N#Cc1ccccc1-c1ccc(C(=O)N[C@H](CCCCNC(=O)OCc2ccccc2)C(N)=O)c(NCCc2cccc(F)c2)n1` [N-{(1R)-1-carbamoyl-5-[(phenylmethoxy)carbonylamino]pentyl}(6-(2-cyanophenyl)-2-{[2-(3-fluorophenyl)ethyl]amino}(3-pyridyl))carboxamide], the IC50 was found to be 58.8 µM.

Consider `CC(=O)N[C@@H](CNC(=O)c1ccc(-c2ccccc2C#N)nc1NCCc1cccc(F)c1)C(N)=O` [N-{(1S)-1-carbamoyl-2-[(6-(2-cyanophenyl)-2-{[2-(3-fluorophenyl)ethyl]amino}(3-pyridyl))carbonylamino]ethyl}acetamide], for which the 50% inhibitory concentration (IC50) came to 2.63 µM.

Consider `C[C@H](CNC(=O)c1cc(F)c(-c2cnn(C)c2)nc1NCCc1cccc(F)c1)NCCO` [N-{(2R)-2-[(2-hydroxyethyl)amino]propyl}(5-fluoro-2-{[2-(3-fluorophenyl)ethyl]amino}-6-(1-methylpyrazol-4-yl)(3-pyridyl))carboxamide], for which the concentration for half-maximal inhibition (IC50) is 0.648 µM. As for `COCCN[C@H](C)CNC(=O)c1cc(F)c(-c2cnn(C)c2)nc1NCCc1cccc(F)c1` [N-{(2R)-2-[(2-methoxyethyl)amino]propyl}(5-fluoro-2-{[2-(3-fluorophenyl)ethyl]amino}-6-(1-methylpyrazol-4-yl)(3-pyridyl))carboxamide], the IC50 is 2.33 µM. Regarding `C[C@H](CNC(=O)c1cc(F)c(-c2cnn(C)c2)nc1NCCc1cccc(F)c1)NCC(N)=O` [N-{(2R)-2-[(carbamoylmethyl)amino]propyl}(5-fluoro-2-{[2-(3-fluorophenyl)ethyl]amino}-6-(1-methylpyrazol-4-yl)(3-pyridyl))carboxamide], the IC50 was found to be 0.636 µM.

On to `C[C@H](CNC(=O)c1cc(F)c(-c2cnn(C)c2)nc1NCCc1cccc(F)c1)NS(C)(=O)=O` [N-{(2R)-2-[(methylsulfonyl)amino]propyl}(5-fluoro-2-{[2-(3-fluorophenyl)ethyl]amino}-6-(1-methylpyrazol-4-yl)(3-pyridyl))carboxamide], for which the IC50 was found to be 1 µM. In the case of `C[C@H](CNC(=O)c1ccc(-c2ccccc2C#N)nc1NCCc1cccc(F)c1)NS(C)(=O)=O` [N-{(2R)-2-[(methylsulfonyl)amino]propyl}(6-(2-cyanophenyl)-2-{[2-(3-fluorophenyl)ethyl]amino}(3-pyridyl))carboxamide], the IC50 was 1.33 µM. In the case of `C[C@H](CNC(=O)c1cc(F)c(-c2cn[nH]c2)nc1NCCc1cccc(F)c1)NC(=O)OC(C)(C)C` [N-{(2R)-2-[(tert-butoxy)carbonylamino]propyl}(5-fluoro-2-{[2-(3-fluorophenyl)ethyl]amino}-6-pyrazol-4-yl(3-pyridyl))carboxamide] it was 8.21 µM; in that of `C[C@H](CNC(=O)c1ccc(-c2ccccc2C#N)nc1NCCc1cccc(F)c1)N(C)S(C)(=O)=O` [N-{(2R)-2-[methyl(methylsulfonyl)amino]propyl}(6-(2-cyanophenyl)-2-{[2-(3-fluorophenyl)ethyl]amino}(3-pyridyl))carboxamide], 7.07 µM. In the case of `C[C@@H](CNC(=O)CNC(=O)OC(C)(C)C)CNC(=O)c1cc(F)c(-c2cnn(C)c2)nc1NCCc1cccc(F)c1` [N-{(2R)-3-[(5-fluoro-2-{[2-(3-fluorophenyl)ethyl]amino}-6-(1-methylpyrazol-4-yl)(3-pyridyl))carbonylamino]-2-methylpropyl}-2-[(tert-butoxy)carbonylamino]acetamide] it was 0.373 µM; in that of `C[C@@H](CNC(=O)CN)CNC(=O)c1cc(F)c(-c2cnn(C)c2)nc1NCCc1cccc(F)c1` [N-{(2R)-3-[(5-fluoro-2-{[2-(3-fluorophenyl)ethyl]amino}-6-(1-methylpyrazol-4-yl)(3-pyridyl))carbonylamino]-2-methylpropyl}-2-aminoacetamide], 0.152 µM; in that of `C[C@@H](CNC(=O)CO)CNC(=O)c1cc(F)c(-c2cnn(C)c2)nc1NCCc1cccc(F)c1` [N-{(2R)-3-[(5-fluoro-2-{[2-(3-fluorophenyl)ethyl]amino}-6-(1-methylpyrazol-4-yl)(3-pyridyl))carbonylamino]-2-methylpropyl}-2-hydroxyacetamide], 0.105 µM. For the molecule `C[C@@H](CNC(=O)c1ccc(-c2ccccc2C#N)nc1NCCc1cccc(F)c1)NS(C)(=O)=O` [N-{(2S)-2-[(methylsulfonyl)amino]propyl}(6-(2-cyanophenyl)-2-{[2-(3-fluorophenyl)ethyl]amino}(3-pyridyl))carboxamide], the IC50 came out at 1.21 µM. Turning to `C[C@@H](CNC(=O)c1ccc(-c2ccccc2C#N)nc1NCCc1cccc(F)c1)N(C)S(C)(=O)=O` [N-{(2S)-2-[methyl(methylsulfonyl)amino]propyl}(6-(2-cyanophenyl)-2-{[2-(3-fluorophenyl)ethyl]amino}(3-pyridyl))carboxamide], the half-inhibitory concentration (IC50) worked out at 5.84 µM.

`N#Cc1ccccc1-c1ccc(C(=O)N[C@H](CCCNC(=O)OCc2ccccc2)C(N)=O)c(NCCc2cccc(F)c2)n1` [N-{(4R)-4-carbamoyl-4-[(6-(2-cyanophenyl)-2-{[2-(3-fluorophenyl)ethyl]amino}(3-pyridyl))carbonylamino]butyl}(phenylmethoxy)carboxamide]: the 50% inhibitory concentration (IC50) came to 19.6 µM. In the case of `N#Cc1ccccc1-c1ccc(C(=O)NCC2CCN(C(=O)CN)CC2)c(NCCc2cccc(F)c2)n1` [N-{[1-(2-aminoacetyl)(4-piperidyl)]methyl}(6-(2-cyanophenyl)-2-{[2-(3-fluorophenyl)ethyl]amino}(3-pyridyl))carboxamide] it was 0.572 µM; in that of `N#Cc1ccccc1-c1ccc(C(=O)NCC2CCCCCN2C(=O)CN)c(NCCc2cccc(F)c2)n1` (stereo not drawn) [N-{[1-(2-aminoacetyl)azaperhydroepin-2-yl]methyl}(6-(2-cyanophenyl)-2-{[2-(3-fluorophenyl)ethyl]amino}(3-pyridyl))carboxamide], 0.248 µM. On to `N#Cc1ccccc1-c1ccc(C(=O)NCC2CCN(C(=O)CN)C2)c(NCCc2cccc(F)c2)n1` (stereo not drawn) [N-{[1-(2-aminoacetyl)pyrrolidin-3-yl]methyl}(6-(2-cyanophenyl)-2-{[2-(3-fluorophenyl)ethyl]amino}(3-pyridyl))carboxamide], for which the IC50 is 0.203 µM. For `N#Cc1ccccc1-c1ccc(C(=O)NCC2CCCN(CCN)C2=O)c(NCCc2cccc(F)c2)n1` (stereo not drawn) [N-{[1-(2-aminoethyl)-2-oxo(3-piperidyl)]methyl}(6-(2-cyanophenyl)-2-{[2-(3-fluorophenyl)ethyl]amino}(3-pyridyl))carboxamide], the concentration for half-maximal inhibition (IC50) was determined as 0.031 µM.

As for `Cn1cc(-c2ccc(C(=O)NCc3ccn(CCN)n3)c(NCCc3cccc(F)c3)n2)cn1` [N-{[1-(2-aminoethyl)pyrazol-3-yl]methyl}(2-{[2-(3-fluorophenyl)ethyl]amino}-6-(1-methylpyrazol-4-yl)(3-pyridyl))carboxamide], the concentration for half-maximal inhibition (IC50) is 1.86 µM. Turning to `NCCn1ccc(CNC(=O)c2ccc(-c3cc[nH]n3)nc2NCCc2cccc(F)c2)n1` [N-{[1-(2-aminoethyl)pyrazol-3-yl]methyl}(2-{[2-(3-fluorophenyl)ethyl]amino}-6-pyrazol-3-yl(3-pyridyl))carboxamide], the 50% inhibitory concentration (IC50) was found to be 5.51 µM. For `NCCn1ccc(CNC(=O)c2ccc(-c3cn[nH]c3)nc2NCCc2cccc(F)c2)n1` [N-{[1-(2-aminoethyl)pyrazol-3-yl]methyl}(2-{[2-(3-fluorophenyl)ethyl]amino}-6-pyrazol-4-yl(3-pyridyl))carboxamide], the half-inhibitory concentration (IC50) was 1.49 µM. Consider `N#Cc1ccccc1-c1ccc(C(=O)NCc2ccn(CCN)n2)c(NCCc2cccc(F)c2)n1` [N-{[1-(2-aminoethyl)pyrazol-3-yl]methyl}(6-(2-cyanophenyl)-2-{[2-(3-fluorophenyl)ethyl]amino}(3-pyridyl))carboxamide], for which the 50% inhibitory concentration (IC50) is 0.296 µM. For `Cn1cc(-c2ccc(C(=O)NCc3ccnn3CCN)c(NCCc3cccc(F)c3)n2)cn1` [N-{[1-(2-aminoethyl)pyrazol-5-yl]methyl}(2-{[2-(3-fluorophenyl)ethyl]amino}-6-(1-methylpyrazol-4-yl)(3-pyridyl))carboxamide], the half-inhibitory concentration (IC50) came out at 0.313 µM. As for `NCCn1nccc1CNC(=O)c1ccc(-c2cc[nH]n2)nc1NCCc1cccc(F)c1` [N-{[1-(2-aminoethyl)pyrazol-5-yl]methyl}(2-{[2-(3-fluorophenyl)ethyl]amino}-6-pyrazol-3-yl(3-pyridyl))carboxamide], the IC50 was determined as 0.634 µM. For the molecule `N#Cc1ccccc1-c1ccc(C(=O)NCc2ccnn2CCN)c(NCCc2cccc(F)c2)n1` [N-{[1-(2-aminoethyl)pyrazol-5-yl]methyl}(6-(2-cyanophenyl)-2-{[2-(3-fluorophenyl)ethyl]amino}(3-pyridyl))carboxamide], the 50% inhibitory concentration (IC50) was determined as 0.032 µM. Regarding `N#Cc1ccccc1-c1ccc(C(=O)NCC2CCCN2CCN)c(NCCc2cccc(F)c2)n1` (stereo not drawn) [N-{[1-(2-aminoethyl)pyrrolidin-2-yl]methyl}(6-(2-cyanophenyl)-2-{[2-(3-fluorophenyl)ethyl]amino}(3-pyridyl))carboxamide], the half-inhibitory concentration (IC50) stood at 0.758 µM. Turning to `N#Cc1ccccc1-c1ccc(C(=O)NCC2CCN(C(=O)CCN)CC2)c(NCCc2cccc(F)c2)n1` [N-{[1-(3-aminopropanoyl)(4-piperidyl)]methyl}(6-(2-cyanophenyl)-2-{[2-(3-fluorophenyl)ethyl]amino}(3-pyridyl))carboxamide], the IC50 was 3.87 µM.
